Test results reported in patent publication US20260347373A1, “HETEROCYCLIC COMPOUNDS, COMPOSITIONS THEREOF, AND METHODS OF TREATMENT THEREWITH” (BeOne Medicines I GmbH, priority 2023, published 2026).
Counter-ions that a name gives are not always drawn. Like-named read-outs stand apart in the source and are kept apart here.

Key:
KRAS G12D = KRAS G12D (Homo sapiens, UniProt P01116, G12D); assay: KRAS G12D Probe Displacement Assay (TR-FRET, GDP-loaded); format: binding
Text: (§1) The synthetic routes of probe 1 and 2, which have been disclosed in PCT/CN2022/070676, are hereby incorporated herein.

WT KRAS = WT KRAS (Homo sapiens, UniProt P01116); assay: KRAS WT Probe Displacement Assay (TR-FRET, GDP-loaded); format: binding
Text: as §1

[1] = KRAS G12D, read-out: KRAS^G12D Probe Displacement Assay IC50
[2] = KRAS WT, read-out: KRAS^WT Probe Displacement Assay IC50
[3] = KRAS^G12D Probe Displacement Assay IC50, KRAS G12D
[4] = KRAS^WT Probe Displacement Assay IC50, KRAS WT

KRAS G12D, sequence (P01116 1-188 isoform P01116-2 G12D): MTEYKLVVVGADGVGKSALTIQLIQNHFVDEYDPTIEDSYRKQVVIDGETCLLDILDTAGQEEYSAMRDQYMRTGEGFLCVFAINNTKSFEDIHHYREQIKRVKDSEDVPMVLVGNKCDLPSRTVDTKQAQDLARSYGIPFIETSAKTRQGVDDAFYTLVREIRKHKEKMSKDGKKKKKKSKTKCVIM
WT KRAS, sequence (P01116 1-188 isoform P01116-2): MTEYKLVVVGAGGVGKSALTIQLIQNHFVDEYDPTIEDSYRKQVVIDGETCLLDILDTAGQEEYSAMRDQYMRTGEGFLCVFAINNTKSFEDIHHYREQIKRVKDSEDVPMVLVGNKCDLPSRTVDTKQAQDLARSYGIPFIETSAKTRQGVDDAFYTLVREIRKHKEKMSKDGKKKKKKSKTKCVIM

Structure (SMILES)	IC50 (KRAS G12D; [1]) [nM]	IC50 (WT KRAS; [2]) [nM]	IC50 (KRAS G12D; [3]) [nM]	IC50 (WT KRAS; [4]) [nM]
Cc1cc(N)cc(-c2nc3c4c(nc(O[C@@H](C)[C@@H]5CCCN5C)nc4c2F)N2C[C@H]4CC[C@H](N4)[C@H]2CCO3)c1C(F)(F)F [Example 37, 3-((6aR,7S,10R)-1-fluoro-13-((S)-1-((S)-1-methylpyrrolidin-2-yl)ethoxy)-5,6,6a,7,8,9,10,11-octahydro-4-oxa-3,11a,12,14,15-pentaaza-7,10-methanocyclohepta[4,5]cycloocta [1,2,3-de]naphthalen-2-yl)-5-methyl-4-(trifluoromethyl)aniline]	< 0.3	3 to 1000		
COC[C@@H]1[C@@H]2C[C@@H]2CN1CC1(COc2nc3c4c(nc(-c5cc(N)cc(C)c5C(F)(F)F)c(F)c4n2)OCC[C@@H]2[C@@H]4CC[C@H](CN32)N4)CC1 [Example 180, 3-((6aR,7S,10R)-1-fluoro-13-((1-(((1R,2S,5S)-2-(methoxymethyl)-3-azabicyclo[3.1.0]hexan-3-yl)methyl)cyclopropyl)methoxy)-5,6,6a,7,8,9,10,11-octahydro-4-oxa-3,11a,12,14,15-pentaaza-7,10-methanocyclohepta[4,5]cycloocta[1,2,3-de]naphthalen-2-yl)-5-methyl-4-(trifluoromethyl)aniline]	0.3 to 3	3 to 1000		
[2H]C([2H])([2H])c1cc(N)cc(-c2nc3c4c(nc(OCC56C[C@@H](F)CN5C[C@H](F)C6)nc4c2F)N2C[C@H]4CC[C@H](N4)[C@H]2CCO3)c1C(F)(F)F [Example 73, 3-((6aR,7S,10R)-13-(((2R,6R)-2,6-difluorotetrahydro-1H-pyrrolizin-7a(5H)-yl)methoxy)-1-fluoro-5,6,6a,7,8,9,10,11-octahydro-4-oxa-3,11a,12,14,15-pentaaza-7,10-methanocyclohepta[4,5]cycloocta [1,2,3-de]naphthalen-2-yl)-5-(methyl-d3)-4-(trifluoromethyl)aniline]	< 0.3	3 to 1000		
Cc1cc(N)cc(-c2nc3c4c(nc(OCC5(CN6C[C@H]7C[C@H]7[C@H]6CO)CC5)nc4c2F)N2C[C@H]4CC[C@H](N4)[C@H]2CCO3)c1C(F)(F)F [Example 98, ((1R,2S,5S)-3-((1-((((6aR,7S,10R)-2-(5-amino-3-methyl-2-(trifluoromethyl)phenyl)-1-fluoro-5,6,6a,7,8,9,10,11-octahydro-4-oxa-3,11a,12,14,15-pentaaza-7,10-methanocyclohepta [4,5]cycloocta[1,2,3-de]naphthalen-13-yl)oxy)methyl)cyclopropyl)methyl)-3-azabicyclo [3.1.0]hexan-2-yl) methanol]	< 0.3	3 to 1000		
Cc1cc(N)cc(-c2nc3c4c(nc(O[C@@H](C)[C@@H]5[C@H]6C[C@H]6CN5C)nc4c2F)N2C[C@H]4CC[C@H](N4)[C@H]2CCO3)c1C(F)(F)F [Example 223, 3-((6aR,7S,10R)-1-fluoro-13-((S)-1-((1S,2S,5R)-3-methyl-3-azabicyclo[3.1.0]hexan-2-yl)ethoxy)-5,6,6a,7,8,9,10,11-octahydro-4-oxa-3,11a,12,14,15-pentaaza-7,10-methanocyclohepta[4,5]cycloocta[1,2,3-de]naphthalen-2-yl)-5-methyl-4-(trifluoromethyl)aniline]	< 0.3	3 to 1000		
COC1CN(C)CC(C)(COc2nc3c4c(nc(-c5cc(N)cc(C)c5C(F)(F)F)c(F)c4n2)OCC[C@@H]2[C@@H]4CC[C@H](CN32)N4)C1 (stereo partly drawn) [Example 126, 3-((6aR,7S,10R)-1-fluoro-13-((5-methoxy-1,3-dimethylpiperidin-3-yl)methoxy)-5,6,6a,7,8,9,10,11-octahydro-4-oxa-3,11a,12,14,15-pentaaza-7,10-methanocyclohepta[4,5]cycloocta[1,2,3-de]naphthalen-2-yl)-5-methyl-4-(trifluoromethyl)aniline]	0.3 to 3	3 to 1000		
Cc1cc(N)cc(-c2nc3c4c(nc(OCC5(CN6CCC=C(F)C6)CC5)nc4c2F)N2C[C@H]4CC[C@H](N4)[C@H]2CCO3)c1C(F)(F)F [Example 179, 3-((6aR,7S,10R)-1-fluoro-13-((1-((5-fluoro-3,6-dihydropyridin-1(2H)-yl)methyl)cyclopropyl)methoxy)-5,6,6a,7,8,9,10,11-octahydro-4-oxa-3,11a,12,14,15-pentaaza-7,10-methanocyclohepta[4,5]cycloocta[1,2,3-de]naphthalen-2-yl)-5-methyl-4-(trifluoromethyl)aniline]	< 0.3	3 to 1000		
Cc1cc(N)cc(-c2nc3c4c(nc(OCC5(CN6C[C@H]7CC[C@@H](C6)O7)CC5)nc4c2F)N2C[C@H]4CC[C@H](N4)[C@H]2CCO3)c1C(F)(F)F [Example 106, 3-((6aR,7S,10R)-13-((1-(((1R,5S)-8-oxa-3-azabicyclo [3.2.1]octan-3-yl)methyl)cyclopropyl)methoxy)-1-fluoro-5,6,6a, 7,8,9,10,11-octahydro-4-oxa-3,11a,12,14,15-pentaaza-7,10-methanocyclohepta [4,5]cycloocta [1,2,3-de]naphthalen-2-yl)-5-methyl-4-(trifluoromethyl)aniline]	< 0.3	3 to 1000		
Cc1cc(N)cc(-c2nc3c4c(nc(OCC5(CN6CCc7cnn(C)c7C6)CC5)nc4c2F)N2C[C@H]4CC[C@H](N4)[C@H]2CCO3)c1C(F)(F)F [Example 193]	< 0.3	3 to 1000		
Cc1cc(N)cc(-c2nc3c4c(nc(OCC5(C)COCC5N(C)C)nc4c2F)N2C[C@H]4CC[C@H](N4)[C@H]2CCO3)c1C(F)(F)F (single isomer, unassigned) [Example 42]	0.3 to 3	3 to 1000		
Cc1cc(N)cc(-c2nc3c4c(nc(OCC5(C)CC(F)CN(C6CCOCC6)C5)nc4c2F)N2C[C@H]4CC[C@H](N4)[C@H]2CCO3)c1C(F)(F)F (single isomer, unassigned) [Example 234]	0.3 to 3	3 to 1000		
Cc1cc(N)cc(-c2nc3c4c(nc(OCC5(C)CN(C)CC/C5=C\F)nc4c2F)N2C[C@H]4CC[C@H](N4)[C@H]2CCO3)c1C(F)(F)F (single isomer, unassigned) [Example 236]	< 0.3	3 to 1000		
Cc1cc(N)cc(-c2nc3c4c(nc(OCC5(CN6CCN(C7COC7)CC6)CC5)nc4c2F)N2C[C@H]4CC[C@H](N4)[C@H]2CCO3)c1C(F)(F)F [Example 191, 3-((6aR,7S,10R)-1-fluoro-13-((1-((4-(oxetan-3-yl)piperazin-1-yl)methyl)cyclopropyl)methoxy)-5,6,6a,7,8,9,10,11-octahydro-4-oxa-3,11a,12,14,15-pentaaza-7,10-methanocyclohepta[4,5]cycloocta[1,2,3-de]naphthalen-2-yl)-5-methyl-4-(trifluoromethyl)aniline]	< 0.3	3 to 1000		
Cc1cc(N)cc(-c2nc3c4c(nc(OCC5(CN6CCOCC6)CC5)nc4c2F)N2C[C@H]4CC[C@H](N4)[C@H]2CCO3)c1C(F)(F)F [Example 67, 3-((6aR,7S,10R)-1-fluoro-13-((1-(morpholinomethyl)cyclopropyl)methoxy)-5,6,6a,7,8,9,10,11-octahydro-4-oxa-3,11a,12,14,15-pentaaza-7,10-methanocyclohepta[4,5]cycloocta [1,2,3-de]naphthalen-2-yl)-5-methyl-4-(trifluoromethyl)aniline]	< 0.3	3 to 1000		
Cc1cc(N)cc(-c2nc3c4c(nc(OC[C@]56C[C@H](F)CN5C[C@H](F)C6)nc4c2F)N2C[C@H]4CC[C@H](N4)[C@H]2CCO3)c1C(F)(F)F [Example 35]	0.3 to 3	3 to 1000		
Cc1cc(N)cc(-c2nc3c4c(nc(OCC5(C6CCCN6C)CC5)nc4c2F)N2C[C@H]4CC[C@H](N4)[C@H]2CCO3)c1C(F)(F)F (mixture of isomers) [Example 63, 3-((6aR,7S,10R)-1-fluoro-13-((1-(1-methylpyrrolidin-2-yl)cyclopropyl)methoxy)-5,6,6a,7,8,9,10,11-octahydro-4-oxa-3,11a,12,14,15-pentaaza-7,10-methanocyclohepta[4,5]cycloocta[1,2,3-de]naphthalen-2-yl)-5-methyl-4-(trifluoromethyl)aniline]	< 0.3	3 to 1000		
Cc1cc(N)cc(-c2nc3c4c(nc(OCC5(CN6CC7CC7(CO)C6)CC5)nc4c2F)N2C[C@H]4CC[C@H](N4)[C@H]2CCO3)c1C(F)(F)F (mixture of isomers) [Example 99, (3-((1-((((6aR,7S,10R)-2-(5-amino-3-methyl-2-(trifluoromethyl)phenyl)-1-fluoro-5,6,6a,7,8,9,10,11-octahydro-4-oxa-3,11a,12,14,15-pentaaza-7,10-methanocyclohepta [4,5]cycloocta [1,2,3-de]naphthalen-13-yl)oxy)methyl)cyclopropyl)methyl)-3-azabicyclo[3.1.0]hexan-1-yl)methanol]	< 0.3	0.3 to 3		
Cc1cc(N)cc(-c2nc3c4c(nc(OCC5(CN6CCOCC(F)C6)CC5)nc4c2F)N2C[C@H]4CC[C@H](N4)[C@H]2CCO3)c1C(F)(F)F (stereo partly drawn) [Example 153, 3-((6aR,7S,10R)-1-fluoro-13-((1-((6-fluoro-1,4-oxazepan-4-yl)methyl)cyclopropyl)methoxy)-5,6,6a,7,8,9,10,11-octahydro-4-oxa-3,11a,12,14,15-pentaaza-7,10-methano-cyclohepta[4,5]cycloocta [1,2,3-de]naphthalen-2-yl)-5-methyl-4-(trifluoromethyl) aniline]			< 0.3	3 to 1000
Cc1cc(N)cc(-c2nc3c4c(nc(OCC5(CN6C7COCC6C7)CC5)nc4c2F)N2C[C@H]4CC[C@H](N4)[C@H]2CCO3)c1C(F)(F)F [Example 104, 3-((6aR,7S,10R)-13-((1-((3-oxa-6-azabicyclo[3.1.1]heptan-6-yl)methyl)cyclopropyl)methoxy)-1-fluoro-5,6,6a,7,8,9,10,11-octahydro-4-oxa-3,11a,12,14,15-pentaaza-7,10-methanocyclohepta [4,5]cycloocta [1,2,3-de]naphthalen-2-yl)-5-methyl-4-(trifluoromethyl) aniline formate]			< 0.3	3 to 1000
